This is an account of results in ChEMBL document CHEMBL3734665, “Design, synthesis and evaluation of antiestrogen and histone deacetylase inhibitor molecular hybrids” (Bioorg Med Chem, 2015).

One assay concerns MCF7. Briefly: Antiproliferative activity against human MCF7 cells treated for 48 hrs followed by refreshed every 96 hrs measured on day 10 by Lowry assay. Format: functional, cell-based.
For assay [1], the target named is T1, Protein deacetylase HDAC6 (Homo sapiens, UniProt Q9UBN7).
T1 sequence (Q9UBN7 whole entry): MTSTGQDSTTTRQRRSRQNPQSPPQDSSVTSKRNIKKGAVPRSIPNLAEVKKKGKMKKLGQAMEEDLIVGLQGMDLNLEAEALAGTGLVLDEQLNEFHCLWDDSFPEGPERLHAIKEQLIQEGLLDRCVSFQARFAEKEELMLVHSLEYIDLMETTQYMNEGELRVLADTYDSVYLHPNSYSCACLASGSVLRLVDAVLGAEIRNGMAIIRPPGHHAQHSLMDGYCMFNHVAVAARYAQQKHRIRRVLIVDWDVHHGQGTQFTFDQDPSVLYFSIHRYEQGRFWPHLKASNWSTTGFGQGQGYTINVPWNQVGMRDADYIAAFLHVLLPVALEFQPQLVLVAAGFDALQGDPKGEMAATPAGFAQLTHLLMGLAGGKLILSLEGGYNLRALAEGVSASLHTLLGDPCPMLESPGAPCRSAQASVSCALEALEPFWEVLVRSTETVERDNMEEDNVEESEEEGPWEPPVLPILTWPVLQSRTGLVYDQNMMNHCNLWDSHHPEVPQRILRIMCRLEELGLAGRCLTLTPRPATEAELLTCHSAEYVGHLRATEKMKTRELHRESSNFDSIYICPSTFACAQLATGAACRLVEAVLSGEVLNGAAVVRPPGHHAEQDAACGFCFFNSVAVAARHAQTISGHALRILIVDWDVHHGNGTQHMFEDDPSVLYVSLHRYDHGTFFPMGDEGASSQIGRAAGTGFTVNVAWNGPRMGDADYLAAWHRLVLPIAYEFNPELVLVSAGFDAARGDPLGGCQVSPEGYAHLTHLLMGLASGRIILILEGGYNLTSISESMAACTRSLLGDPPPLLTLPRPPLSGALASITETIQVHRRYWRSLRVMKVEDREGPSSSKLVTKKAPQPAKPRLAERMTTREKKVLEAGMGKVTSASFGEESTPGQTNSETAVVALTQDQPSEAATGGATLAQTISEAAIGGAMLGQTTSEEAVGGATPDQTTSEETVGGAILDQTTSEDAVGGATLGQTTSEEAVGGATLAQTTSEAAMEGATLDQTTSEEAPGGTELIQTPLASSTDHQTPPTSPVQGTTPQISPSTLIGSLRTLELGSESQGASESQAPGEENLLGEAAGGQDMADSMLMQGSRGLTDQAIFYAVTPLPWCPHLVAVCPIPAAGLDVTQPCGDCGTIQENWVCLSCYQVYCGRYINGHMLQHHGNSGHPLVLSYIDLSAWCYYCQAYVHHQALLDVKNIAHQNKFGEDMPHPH
In words: Inhibition of human recombinant HDAC6 using Boc-Lys(Ac)-AMC as substrate after 30 mins by fluorescence assay.

In another assay the target is Histone deacetylase 3 (Homo sapiens, UniProt O15379). In words: Inhibition of human recombinant HDAC3 using Boc-Lys(Ac)-AMC as substrate after 30 mins by fluorescence assay.
Assay [2] deals with T2, Estrogen receptor (Homo sapiens, UniProt P03372).
T2 sequence (P03372 whole entry): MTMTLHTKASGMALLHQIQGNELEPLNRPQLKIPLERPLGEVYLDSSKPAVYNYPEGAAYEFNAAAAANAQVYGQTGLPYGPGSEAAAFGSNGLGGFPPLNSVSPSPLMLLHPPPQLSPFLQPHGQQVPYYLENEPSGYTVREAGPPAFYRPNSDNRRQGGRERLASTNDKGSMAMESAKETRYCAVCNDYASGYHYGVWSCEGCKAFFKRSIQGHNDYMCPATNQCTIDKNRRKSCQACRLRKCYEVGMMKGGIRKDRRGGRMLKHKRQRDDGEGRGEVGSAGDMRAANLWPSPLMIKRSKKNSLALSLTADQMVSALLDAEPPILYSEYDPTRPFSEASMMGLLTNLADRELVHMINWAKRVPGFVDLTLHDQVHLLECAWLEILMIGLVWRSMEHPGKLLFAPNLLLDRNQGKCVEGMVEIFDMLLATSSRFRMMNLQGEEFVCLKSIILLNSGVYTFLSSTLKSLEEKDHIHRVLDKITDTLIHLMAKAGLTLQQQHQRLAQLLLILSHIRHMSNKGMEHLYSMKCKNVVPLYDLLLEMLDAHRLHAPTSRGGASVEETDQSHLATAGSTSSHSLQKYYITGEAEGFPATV
In words: (§1) Antagonist activity at luciferase-fused ERalpha in human HEK293 cells expressing eYFP assessed as reduction of E2-induced estrogenic activity after 2 hrs by BRET assay. The class given is cell-based.

For assay [3], the target named is T3, Estrogen receptor (Homo sapiens) (UniProt P03372).
T3 sequence (whole entry): T2 sequence (P03372 whole entry)
The description is as §1. Format: cell-based.

Assay [4] has as its target T2, Estrogen receptor. Briefly: Antagonist activity at ERalpha in human T47D-KBLuc cells assessed as inhibition of E2-induced transcriptional activity by luciferase reporter gene assay. Format: cell-based.
The next assay relates to MDA-MB-231. Briefly: Antiproliferative activity against human MDA-MB-231 cells treated for 48 hrs followed by refreshed every 96 hrs measured on day 10 by Lowry assay. Format: functional, cell-based.

Histone deacetylase 3, sequence (O15379 whole entry): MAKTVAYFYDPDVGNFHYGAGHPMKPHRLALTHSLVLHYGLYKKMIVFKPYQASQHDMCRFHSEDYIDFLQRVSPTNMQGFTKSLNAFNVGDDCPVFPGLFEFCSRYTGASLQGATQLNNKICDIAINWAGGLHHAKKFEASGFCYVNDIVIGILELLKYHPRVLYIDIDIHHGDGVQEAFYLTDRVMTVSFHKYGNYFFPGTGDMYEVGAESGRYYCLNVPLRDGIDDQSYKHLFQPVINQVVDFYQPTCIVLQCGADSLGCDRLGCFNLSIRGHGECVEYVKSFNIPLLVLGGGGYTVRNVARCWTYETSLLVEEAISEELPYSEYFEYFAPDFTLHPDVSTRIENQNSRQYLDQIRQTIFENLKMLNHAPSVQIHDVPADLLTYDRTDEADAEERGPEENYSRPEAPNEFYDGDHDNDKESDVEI

As to `CCCCN(C)C(=O)CCCCCCCCCC[C@@H]1Cc2cc(O)ccc2[C@H]2CC[C@]3(C)[C@@H](O)CC[C@H]3[C@H]12`, in the assay with MCF7, the IC50 was found to be 930 nM.
Regarding `CC/C(=C(\c1ccc(O)cc1)c1ccc(OCCN(C)C)cc1)c1ccccc1` [AFIMOXIFENE], in the assay on MCF7, it took 150 nM to reach half-maximal inhibition (IC50).
With `C[C@]12CC[C@@H]3c4ccc(O)cc4C[C@@H](CCCCCCCCCCC(=O)Nc4ccccc4N)[C@H]3[C@@H]1CC[C@@H]2O`, the IC50 in the assay on MCF7 is 1900 nM; in assay [1], greater than 50000 nM; on Histone deacetylase 3, 3180 nM; at Estrogen receptor [2], 210 nM; at Estrogen receptor [4] it was 720 nM. For the same molecule, the inhibition entry in assay [3] is “Dose-dependent effect”.
Regarding `C[C@]12CC[C@@H]3c4ccc(O)cc4C[C@@H](CCCCCCCCCCC(=O)NO)[C@H]3[C@@H]1CC[C@@H]2O`, the IC50 with MCF7 is 2930 nM; in assay [1], 1150 nM; on Histone deacetylase 3 it was 960 nM; on Estrogen receptor [2], 510 nM; on Estrogen receptor [4] it was 1060 nM. The inhibition entry in assay [3] is “Dose-dependent effect”.
For `CCCCN(O)C(=O)CCCCCCCCCC[C@@H]1Cc2cc(O)ccc2[C@H]2CC[C@]3(C)[C@@H](O)CC[C@H]3[C@H]12`, the IC50 was 9110 nM with MCF7; greater than 50000 nM in assay [1]; greater than 5000 nM at Histone deacetylase 3; 2550 nM on Estrogen receptor [2]; 2100 nM on Estrogen receptor [4]. The inhibition result in assay [3] is “Dose-dependent effect”.
As for `CCCCN(O)C(=O)c1cccc(NC(=O)CCCCCS[C@@H]2Cc3cc(O)ccc3[C@H]3CC[C@]4(C)[C@@H](O)CC[C@H]4[C@@H]32)c1`, the IC50 with MDA-MB-231 turned out to be 5020 nM; with MCF7, 340 nM; in assay [1] it was 43700 nM; at Histone deacetylase 3, 1550 nM; at Estrogen receptor [2] it was 50 nM; at Estrogen receptor [4] it was 180 nM. Also, the inhibition entry in assay [3] was “Dose-dependent effect”.
`Nc1ccccc1NC(=O)c1ccc(CNC(=O)OCc2cccnc2)cc1` [ENTINOSTAT] registered an IC50 in the assay with MCF7 of 350 nM.
